Experiments:
LNCaP-AR cells [1] = experiment: in vitro growth in low androgen concentrations, AR-overexpressing cells; type: cell-based, human; conditions: compared with 100 pM needed by vector cells
Text: (§1) To determine if increased AR protein concentration plays a causal role in the HS-to-HR transition, we introduced an epitope-tagged wildtype AR cDNA by retrovirus infection into HS LNCaP human prostate cancer cells. A three-fold increase in AR levels in LNCaP-AR cells mimics the expression difference observed in the LNCaP HS/HR pair studied in the microarray experiment. To test whether increased AR expression causes the HS-to-HR transition, we designed two in vitro assays to mimic the clinical circumstances of HR disease. […] In contrast, LNCaP-AR cells grew in at least 80% lower concentrations of R1881.
(§2) Details of typical in vitro and in vivo growth experiments are as follows: LNCaP (ATCC) and LAPC4 cells were maintained in Iscove's medium supplemented with 10% fetal bovine serum. […] In vivo tumorigenicity was measured by injection of 5×10^5 LAPC4 or 1×10^6 LNCaP cells in 100 μl of Matrigel (Collaborative Biomedical) subcutaneously into the flanks of intact or castrated male SCID mice. Tumor size was measured weekly in three dimensions using caliber as described.^26 AR knockdown was performed by infection of HR LAPC4 with shRNA AR lentivirus. Tumors which grew in castrated mice were explanted, and analyzed by flow cytometry for the percentage of GFP-positive cells. […]

LNCaP-AR cells [2] = experiment: Affymetrix U133A microarray of induced genes, AR-overexpressing cells; type: cell-based, human
[3] = molecular target: AR transcription complex on the promoters of PSA and KLK2 (Homo sapiens, UniProt P10275, T878A)
Description: Soluble chromatin was prepared after formaldehyde crosslinking and sonication. Specific IgGs against AR, N—CoR, PolII, Ac—H3/4, SRC1, TIF2, AIB1, and PCAF were used to immunoprecipitate protein-bound DNA fragments.

[4] = test system: LNCaP cells infected with the empty vector; experiment: in vitro growth in low androgen concentrations, vector control cells; type: cell-based, human; conditions: failed to grow unless supplemented
Text: as §1, §2

AR transcription complex on the promoters of PSA and KLK2, sequence (P10275 whole entry T878A, the tested form may be a part, one chain of several): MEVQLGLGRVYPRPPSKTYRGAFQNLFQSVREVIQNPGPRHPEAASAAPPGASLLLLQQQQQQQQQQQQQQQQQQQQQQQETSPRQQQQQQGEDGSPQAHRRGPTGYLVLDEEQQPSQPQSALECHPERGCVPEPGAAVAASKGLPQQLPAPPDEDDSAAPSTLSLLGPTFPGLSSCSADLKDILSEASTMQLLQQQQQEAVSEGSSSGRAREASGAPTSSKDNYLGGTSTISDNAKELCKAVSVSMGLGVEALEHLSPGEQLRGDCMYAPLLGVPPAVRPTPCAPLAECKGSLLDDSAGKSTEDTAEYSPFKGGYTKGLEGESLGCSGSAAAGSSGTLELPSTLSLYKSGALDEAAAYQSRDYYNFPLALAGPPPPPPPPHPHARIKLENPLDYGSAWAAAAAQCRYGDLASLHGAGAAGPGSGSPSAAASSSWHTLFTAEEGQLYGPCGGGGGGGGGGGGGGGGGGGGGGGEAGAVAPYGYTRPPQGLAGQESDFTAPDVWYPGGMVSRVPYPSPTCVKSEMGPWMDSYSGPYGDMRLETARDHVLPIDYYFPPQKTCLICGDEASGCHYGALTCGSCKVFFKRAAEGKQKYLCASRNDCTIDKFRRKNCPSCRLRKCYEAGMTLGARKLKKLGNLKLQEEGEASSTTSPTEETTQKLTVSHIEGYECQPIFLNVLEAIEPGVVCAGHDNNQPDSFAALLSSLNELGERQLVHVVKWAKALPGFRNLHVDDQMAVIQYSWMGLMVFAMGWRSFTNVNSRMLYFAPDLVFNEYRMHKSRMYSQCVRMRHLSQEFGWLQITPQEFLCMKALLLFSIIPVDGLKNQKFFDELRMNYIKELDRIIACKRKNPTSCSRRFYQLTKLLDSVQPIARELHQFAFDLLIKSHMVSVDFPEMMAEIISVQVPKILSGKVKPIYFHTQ

| Compound | lower concentration of R1881 in which cells grew (LNCaP-AR cells [1]) | total number of androgen-regulated genes (LNCaP-AR cells [2]; increasing doses of R1881) | recruitment of AR and polymerase II to PSA and KLK2 promoters [3] | R1881 supplement needed for growth in steroid-depleted, charcoal-stripped serum [4] | subset of the total number of androgen-regulated genes induced (LNCaP-AR cells [2]; LNCaP-AR, 10 μM bicalutamide) |
| --- | --- | --- | --- | --- | --- |
| C[C@]1(O)CC[C@H]2[C@@H]3CCC4=CC(=O)CCC4=C3C=C[C@@]21C [R1881] | at least 80% | > 600 probe sets | AR and polymerase II were recruited to both promoters regardless of AR level | 100 pM | – |
| CC(O)(CS(=O)(=O)c1ccc(F)cc1)C(=O)Nc1ccc(C#N)c(C(F)(F)F)c1 (centres unmarked) [bicalutamide] | – | – | – | – | < 10% |
